Test results taken from patent publication US10632149B2, “Drug based on maghemite for simultaneous reduction of gastrointestinal sodium resorption and phosphate resorption” (CHARITÉ-UNIVERSITAETSMEDIZIN BERLIN, priority 2014, dated 2020).

System: healthy rats
Conditions: rat, in vivo
Experimental: Male rats of the breed Sprague Dawley from Charles River were used at the beginning of the experiment with weight of 200 g (n=8) per group listed below. […] Then for another 4 weeks (week 2-5), the feed mentioned above ad libitum with active substance additive. On the last day of each experiment week, the animals were kept individually in a metabolic cage for 24 hours (day 6 to day 7). Feces and urine were collected. Blood was obtained only on the last collection day. Blood and urine samples were examined by Synlab GmbH.
The groups received as follows from week 2-5 additives per 100 g feed Group A control—no additives
Group B adjuvants—addition of 0.2 g of mannitol and each 0.9 g of inulin and gum arabic
Group D Velphoro®—based on iron as an additive to the feed 250 mg of iron
Group E Fosrenol®—based on lanthanum as an additive to the feed 250 mg lanthanum
Group F Renvela®—based on Sevelamer carbonate 500 mg

Substance: sucroferric oxyhydroxide [Velphoro®]
- Feces excretion 24 hours Weight: 17.1 ± 6.2 g
- Urine volumes 24 hours: 16.1 ± 3.6 mL
